The structures appear in SMILES notation.

In ChEMBL document CHEMBL5528047, “A Potent SOS1 PROTAC Degrader with Synergistic Efficacy in Combination with KRASG12C Inhibitor” (J Med Chem, 2024) one finds Activity data, which are given here for 26 compounds.

Assay type in all cases: cell-based
In experiment [1] the target is T1, von Hippel-Lindau disease tumor suppressor/Son of sevenless homolog 1 (Homo sapiens, UniProt Q07889+P40337). Put plainly: Protac activity at VHL/SOS1 in human K562 cells assessed as SOS1 degradation at 10 uM by Western blotting analysis relative to control.
Experiment [2] addresses T1, von Hippel-Lindau disease tumor suppressor/Son of sevenless homolog 1. Description: Protac activity at VHL/SOS1 in human K562 cells assessed as SOS1 degradation at 1 uM by Western blotting analysis relative to control. On the technique in general: Immunoblotting shows a protein as a band on a membrane.
The target is the same in experiment [3]. Description: Protac activity at VHL/SOS1 in human PANC-1 cells assessed as SOS1 degradation at 10 uM by Western blotting analysis relative to control.
Experiment [4] shares this target. Put plainly: Protac activity at VHL/SOS1 in human PANC-1 cells assessed as SOS1 degradation at 1 uM by Western blotting analysis relative to control.
For experiment [5], the target named is T2, Protein cereblon/Son of sevenless homolog 1 (Homo sapiens) (UniProt Q07889+Q96SW2). Description: Protac activity at CRBN/SOS1 in human K562 cells assessed as SOS1 degradation at 1 uM by Western blotting analysis relative to control.
For experiment [6], the target named is T2, Protein cereblon/Son of sevenless homolog 1 (Homo sapiens). Description: Protac activity at CRBN/SOS1 in human PANC-1 cells assessed as SOS1 degradation at 1 uM by Western blotting analysis.
Experiment [7] shares this target. Description: Protac activity at CRBN/SOS1 in human K562 cells assessed as SOS1 degradation at 10 uM by Western blotting analysis relative to control.
For experiment [8] the target is unchanged. Put plainly: Protac activity at CRBN/SOS1 in human PANC-1 cells assessed as SOS1 degradation at 10 uM by Western blotting analysis relative to control.

T2 sequence (Q07889 whole entry, looked up): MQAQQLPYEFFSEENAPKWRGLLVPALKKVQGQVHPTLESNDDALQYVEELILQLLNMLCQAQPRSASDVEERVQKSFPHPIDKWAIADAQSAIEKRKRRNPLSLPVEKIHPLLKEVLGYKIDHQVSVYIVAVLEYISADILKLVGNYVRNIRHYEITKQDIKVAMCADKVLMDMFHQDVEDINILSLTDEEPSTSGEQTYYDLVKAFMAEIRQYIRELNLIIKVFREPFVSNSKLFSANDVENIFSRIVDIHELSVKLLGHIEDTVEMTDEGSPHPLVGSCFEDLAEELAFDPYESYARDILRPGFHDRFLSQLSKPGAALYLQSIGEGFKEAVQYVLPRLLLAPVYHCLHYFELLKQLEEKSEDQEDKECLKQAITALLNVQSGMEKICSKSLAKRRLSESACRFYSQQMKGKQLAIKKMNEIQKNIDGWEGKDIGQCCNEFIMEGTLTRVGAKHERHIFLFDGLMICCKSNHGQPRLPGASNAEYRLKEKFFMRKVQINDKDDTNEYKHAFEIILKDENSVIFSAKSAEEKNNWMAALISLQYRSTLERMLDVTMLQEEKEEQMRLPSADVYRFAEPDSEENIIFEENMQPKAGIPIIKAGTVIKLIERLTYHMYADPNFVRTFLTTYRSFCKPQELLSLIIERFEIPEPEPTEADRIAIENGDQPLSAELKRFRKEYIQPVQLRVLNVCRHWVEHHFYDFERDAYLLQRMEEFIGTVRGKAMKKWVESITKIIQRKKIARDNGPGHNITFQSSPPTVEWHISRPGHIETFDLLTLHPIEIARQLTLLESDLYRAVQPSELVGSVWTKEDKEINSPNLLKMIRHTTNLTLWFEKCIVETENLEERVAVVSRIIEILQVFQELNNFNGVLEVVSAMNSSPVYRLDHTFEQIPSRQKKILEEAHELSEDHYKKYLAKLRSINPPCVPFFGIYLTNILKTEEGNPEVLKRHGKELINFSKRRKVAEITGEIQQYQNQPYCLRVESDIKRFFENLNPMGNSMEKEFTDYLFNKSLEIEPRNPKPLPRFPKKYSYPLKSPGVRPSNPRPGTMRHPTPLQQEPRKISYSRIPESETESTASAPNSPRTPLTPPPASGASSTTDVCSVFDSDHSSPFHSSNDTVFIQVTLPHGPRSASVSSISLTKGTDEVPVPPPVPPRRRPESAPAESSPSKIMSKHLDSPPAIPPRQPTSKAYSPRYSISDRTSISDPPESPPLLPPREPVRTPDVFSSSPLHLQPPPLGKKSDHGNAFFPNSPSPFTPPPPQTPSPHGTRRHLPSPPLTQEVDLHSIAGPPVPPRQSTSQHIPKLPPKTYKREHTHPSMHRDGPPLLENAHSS
T2 sequence (Q96SW2 whole entry, looked up): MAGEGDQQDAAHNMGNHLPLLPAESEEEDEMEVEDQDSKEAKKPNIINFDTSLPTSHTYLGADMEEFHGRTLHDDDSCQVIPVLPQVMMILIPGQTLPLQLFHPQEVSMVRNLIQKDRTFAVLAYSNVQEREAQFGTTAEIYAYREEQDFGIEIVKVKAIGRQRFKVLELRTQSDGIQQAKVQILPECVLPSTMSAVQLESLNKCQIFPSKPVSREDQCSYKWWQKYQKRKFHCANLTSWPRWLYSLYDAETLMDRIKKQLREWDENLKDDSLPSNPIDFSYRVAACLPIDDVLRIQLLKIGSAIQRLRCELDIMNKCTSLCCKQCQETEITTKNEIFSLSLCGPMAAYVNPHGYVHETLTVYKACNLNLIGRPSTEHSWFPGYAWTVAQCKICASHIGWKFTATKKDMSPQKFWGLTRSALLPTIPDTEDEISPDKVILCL
T1 sequence (P40337 whole entry, looked up): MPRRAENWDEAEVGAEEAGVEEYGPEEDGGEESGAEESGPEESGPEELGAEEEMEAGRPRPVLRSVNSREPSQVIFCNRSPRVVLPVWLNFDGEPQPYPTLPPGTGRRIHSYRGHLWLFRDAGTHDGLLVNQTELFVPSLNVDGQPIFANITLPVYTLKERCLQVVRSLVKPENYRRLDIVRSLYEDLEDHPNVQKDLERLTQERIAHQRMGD
T1 sequence (Q07889 whole entry, looked up): as the sequence (Q07889 whole entry, looked up) above

As for `COc1cc2nc(C)nc(N[C@H](C)c3cc(-c4ccccc4CNCC4CCN(C(=O)CC(=O)N[C@H](C(=O)N5C[C@H](O)C[C@H]5C(=O)NCc5ccc(-c6scnc6C)cc5)C(C)(C)C)CC4)cs3)c2cc1OC`, the Activity in experiment [1] stood at 0%; in experiment [2], 0%; in experiment [3] it was 0%; in experiment [4], 26%.
For `COc1cc2nc(C)nc(N[C@H](C)c3cc(-c4ccccc4CNCCCCCCCCC(=O)N[C@H](C(=O)N4C[C@H](O)C[C@H]4C(=O)NCc4ccc(-c5scnc5C)cc4)C(C)(C)C)cs3)c2cc1OC`, the Activity in experiment [1] was found to be 31.6%; in experiment [2], 0%; in experiment [3] it was 24.4%; in experiment [4] it was 0%.
As to `COc1cc2nc(C)nc(N[C@H](C)c3cc(N)cc(C(F)(F)F)c3)c2cc1OCCCCCCCCC(=O)N[C@H](C(=O)N1C[C@H](O)C[C@H]1C(=O)NCc1ccc(-c2scnc2C)cc1)C(C)(C)C`, the Activity in experiment [1] came to 0%; in experiment [2] it was 0%; in experiment [3], 21.5%; in experiment [4] it was 28.2%.
For `CNCc1ccccc1-c1csc([C@@H](C)Nc2nc(C)nc3cc(OC)c(OCCCCCCC(=O)N[C@H](C(=O)N4C[C@H](O)C[C@H]4C(=O)NCc4ccc(-c5scnc5C)cc4)C(C)(C)C)cc23)c1`, the Activity was 21.8% in experiment [1], 28.1% in experiment [2], 0% in experiment [3] and 0% in experiment [4].
Take `COc1cc2nc(C)nc(N[C@H](C)c3cc(-c4ccccc4CNCCC4CCN(C(=O)CC(=O)N[C@H](C(=O)N5C[C@H](O)C[C@H]5C(=O)NCc5ccc(-c6scnc6C)cc5)C(C)(C)C)CC4)cs3)c2cc1OC`: the Activity in experiment [1], in experiment [2], in experiment [3] and in experiment [4] was 0% throughout.
Regarding `COc1cc2nc(C)nc(N[C@H](C)c3cc(-c4ccccc4CNCCCCCCCC(=O)N[C@H](C(=O)N4C[C@H](O)C[C@H]4C(=O)NCc4ccc(-c5scnc5C)cc4)C(C)(C)C)cs3)c2cc1OC`, the Activity in experiment [1] turned out to be 58.9%; in experiment [2], 27.4%; in experiment [3] it was 12.7%; in experiment [4] it was 0%.
For `COc1cc2nc(C)nc(C[C@H](C)c3cc(-c4ccccc4CNCCCCCCCCCNc4ccc5c(c4)C(=O)N(C4CCC(=O)NC4=O)C5=O)cs3)c2cc1OC` (some centres not stated), the Activity in experiment [5] was determined as 0%; in experiment [6] it was 10.3%; in experiment [7] it was 89.1%; in experiment [8] it was 0%.
Consider `CNCc1ccccc1-c1csc([C@@H](C)Nc2nc(C)nc3cc(OC)c(OCCCCCCCCC(=O)N[C@H](C(=O)N4C[C@H](O)C[C@H]4C(=O)NCc4ccc(-c5scnc5C)cc4)C(C)(C)C)cc23)c1`, for which the Activity in experiment [2] is 34.7%; in experiment [3], 0%; in experiment [4], 0%.
As to `COc1cc2nc(C)nc(N[C@H](C)c3cc(N)cc(C(F)(F)F)c3)c2cc1OCCCC(=O)N[C@H](C(=O)N1C[C@H](O)C[C@H]1C(=O)NCc1ccc(-c2scnc2C)cc1)C(C)(C)C`, the Activity in experiment [1], in experiment [2], in experiment [3] and in experiment [4] was 0% each time.
On to `CNCc1ccccc1-c1csc([C@@H](C)Nc2nc(C)nc3cc(OC)c(OCCCCCCCC(=O)N[C@H](C(=O)N4C[C@H](O)C[C@H]4C(=O)NCc4ccc(-c5scnc5C)cc4)C(C)(C)C)cc23)c1`, for which the Activity came out at 27% in experiment [2], 14.3% in experiment [3] and 0% in experiment [4].
Regarding `CNCc1ccccc1-c1csc([C@@H](C)Nc2nc(C)nc3cc(OC)c(OCCCCC(=O)N[C@H](C(=O)N4C[C@H](O)C[C@H]4C(=O)NCc4ccc(-c5scnc5C)cc4)C(C)(C)C)cc23)c1`, the Activity in experiment [1] was 32.9%; in experiment [2], 27.5%; in experiment [3], 0%; in experiment [4] it was 8.8%.
As for `COc1cc2nc(C)nc(N[C@H](C)c3cc(-c4ccccc4CNCCCCCCCNc4ccc5c(c4)C(=O)N(C4CCC(=O)NC4=O)C5=O)cs3)c2cc1OC` (some centres not stated), the Activity in experiment [5] amounted to 35.4%; in experiment [6], 0%; in experiment [7], 72.1%; in experiment [8], 3.4%.
As to `COc1cc2nc(C)nc(N[C@H](C)c3cc(N)cc(C(F)(F)F)c3)c2cc1OCCCCCCCC(=O)N[C@H](C(=O)N1C[C@H](O)C[C@H]1C(=O)NCc1ccc(-c2scnc2C)cc1)C(C)(C)C`, the Activity in experiment [1] was 0%; in experiment [2] it was 0%; in experiment [3] it was 0%; in experiment [4], 28.8%.
Regarding `COc1cc2nc(C)nc(N[C@H](C)c3cc(N)cc(C(F)(F)F)c3)c2cc1OCCCCCCCCCC(=O)N[C@H](C(=O)N1C[C@H](O)C[C@H]1C(=O)NCc1ccc(-c2scnc2C)cc1)C(C)(C)C`, the Activity in experiment [1] was 0%; in experiment [2] it was 0%; in experiment [3], 0%; in experiment [4], 48.3%.
`COc1cc2nc(C)nc(N[C@H](C)c3cc(-c4ccccc4CNCC4CCN(CC5CCN(C(=O)CC(=O)N[C@H](C(=O)N6C[C@H](O)C[C@H]6C(=O)NCc6ccc(-c7scnc7C)cc6)C(C)(C)C)CC5)CC4)cs3)c2cc1OC`: the Activity in experiment [1] came out at 0%; in experiment [2], 0%; in experiment [3], 19.6%; in experiment [4] it was 23%.
On to `COc1cc2nc(C)nc(N[C@H](C)c3cc(-c4ccccc4CNCCCCCCNc4ccc5c(c4)C(=O)N(C4CCC(=O)NC4=O)C5=O)cs3)c2cc1OC` (some centres not stated), for which the Activity in experiment [5] amounted to 0%; in experiment [6], 0%; in experiment [7] it was 37.7%; in experiment [8], 0%.
For the compound `CNCc1ccccc1-c1csc([C@@H](C)Nc2nc(C)nc3cc(OC)c(C4=CCN(C(=O)CCCCC(=O)N[C@H](C(=O)N5C[C@H](O)C[C@H]5C(=O)NCc5ccc(-c6scnc6C)cc5)C(C)(C)C)CC4)cc23)c1`, the Activity stood at 28.3% in experiment [1], 16.6% in experiment [2], 30.2% in experiment [3] and 0% in experiment [4].
In the same order, the values of `CNCc1ccccc1-c1csc([C@@H](C)Nc2nc(C)nc3cc(OC)c(OCCCCCC(=O)N[C@H](C(=O)N4C[C@H](O)C[C@H]4C(=O)NCc4ccc(-c5scnc5C)cc4)C(C)(C)C)cc23)c1` are 0%, 22.5%, 0% and 0%.
In the same order, the values of `CNCc1ccccc1-c1csc([C@@H](C)Nc2nc(C)nc3cc(OC)c(C4=CCN(C(=O)CCCC(=O)N[C@H](C(=O)N5C[C@H](O)C[C@H]5C(=O)NCc5ccc(-c6scnc6C)cc5)C(C)(C)C)CC4)cc23)c1` are 18.7%, 2.3%, 0% and 8.4%.
Consider `COc1cc2nc(C)nc(N[C@H](C)c3cc(N)cc(C(F)(F)F)c3)c2cc1OCCCCCCC(=O)N[C@H](C(=O)N1C[C@H](O)C[C@H]1C(=O)NCc1ccc(-c2scnc2C)cc1)C(C)(C)C`, for which the Activity in experiment [1] stood at 0%; in experiment [2], 0%; in experiment [3], 3.4%; in experiment [4], 27%.
Consider `COc1cc2nc(C)nc(N[C@H](C)c3cc(-c4ccccc4CNCCCCCCCCCC(=O)N[C@H](C(=O)N4C[C@H](O)C[C@H]4C(=O)NCc4ccc(-c5scnc5C)cc4)C(C)(C)C)cs3)c2cc1OC`, for which the Activity turned out to be 25.3% in experiment [1], 0% in experiment [2], 5.8% in experiment [3] and 0% in experiment [4].
In the case of `CNCc1ccccc1-c1csc([C@@H](C)Nc2nc(C)nc3cc(OC)c(C4=CCN(C(=O)CCC(=O)N[C@H](C(=O)N5C[C@H](O)C[C@H]5C(=O)NCc5ccc(-c6scnc6C)cc5)C(C)(C)C)CC4)cc23)c1`, the Activity in experiment [1] came to 6.7%; in experiment [2], 18.9%; in experiment [3] it was 0%; in experiment [4], 5.6%.
In the same order, the values of `COc1cc2nc(C)nc(N[C@H](C)c3cc(-c4ccccc4CNCCCCCC(=O)N[C@H](C(=O)N4C[C@H](O)C[C@H]4C(=O)NCc4ccc(-c5scnc5C)cc4)C(C)(C)C)cs3)c2cc1OC` are 0%, 0%, 11% and 13.2%.
For the compound `COc1cc2nc(C)nc(N[C@H](C)c3cc(-c4ccccc4CNCCCCCCCCNc4ccc5c(c4)C(=O)N(C4CCC(=O)NC4=O)C5=O)cs3)c2cc1OC` (some centres not stated), the Activity in experiment [5] stood at 35.6%; in experiment [6] it was 1.3%; in experiment [7], 46.7%; in experiment [8], 0%.
On to `COc1cc2nc(C)nc(N[C@H](C)c3cc(-c4ccccc4CNCCCN4CCC(C(=O)N[C@H](C(=O)N5C[C@H](O)C[C@H]5C(=O)NCc5ccc(-c6scnc6C)cc5)C(C)(C)C)CC4)cs3)c2cc1OC`, for which the Activity stood at 0% in experiment [1], 0% in experiment [2], 49.8% in experiment [3] and 29.1% in experiment [4].
For the compound `COc1cc2nc(C)nc(N[C@H](C)c3cc(N)cc(C(F)(F)F)c3)c2cc1OCCCCCC(=O)N[C@H](C(=O)N1C[C@H](O)C[C@H]1C(=O)NCc1ccc(-c2scnc2C)cc1)C(C)(C)C`, the Activity in experiment [1], in experiment [2], in experiment [3] and in experiment [4] was 0% each time.
